Patent publication US10544149B2, “Bicyclic alkyne derivatives and uses thereof” (Agency for Science, Technology and Research, priority 2013, dated 2020)
Structures can show the parent of a compound that is named as a salt.

Columns and labels:
MNK1 = MNK1 (Homo sapiens, UniProt Q9BUB5); experiment: MNK1 enzymatic assay; type: biochemical
MNK2 = MNK2 (Homo sapiens, UniProt Q9HBH9); experiment: MNK2 enzymatic assay; type: biochemical
[1] = tested on: eIF4e phosphorylation in Hela cell line; experiment: eIF4e phosphorylation inhibition in Hela cell line; type: cell-based; settings: Homo sapiens, cellular
[2] = tested on: TNF production by macrophage; settings: TLR agonist stimulation, dose dependant; cited from earlier work

Chain of MNK1 (Q9BUB5 whole entry): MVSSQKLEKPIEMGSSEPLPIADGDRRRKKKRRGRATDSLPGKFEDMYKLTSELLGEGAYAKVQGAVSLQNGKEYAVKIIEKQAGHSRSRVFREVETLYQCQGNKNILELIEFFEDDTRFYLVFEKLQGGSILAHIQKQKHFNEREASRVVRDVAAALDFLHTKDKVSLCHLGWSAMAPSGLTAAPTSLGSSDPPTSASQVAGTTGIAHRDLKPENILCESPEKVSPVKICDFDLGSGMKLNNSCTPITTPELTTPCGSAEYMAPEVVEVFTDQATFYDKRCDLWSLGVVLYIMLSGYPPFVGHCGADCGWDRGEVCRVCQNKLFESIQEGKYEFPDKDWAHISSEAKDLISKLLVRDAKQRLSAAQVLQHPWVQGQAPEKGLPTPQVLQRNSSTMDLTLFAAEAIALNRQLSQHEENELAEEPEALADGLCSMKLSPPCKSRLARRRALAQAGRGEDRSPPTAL
Chain of MNK2 (Q9HBH9 whole entry): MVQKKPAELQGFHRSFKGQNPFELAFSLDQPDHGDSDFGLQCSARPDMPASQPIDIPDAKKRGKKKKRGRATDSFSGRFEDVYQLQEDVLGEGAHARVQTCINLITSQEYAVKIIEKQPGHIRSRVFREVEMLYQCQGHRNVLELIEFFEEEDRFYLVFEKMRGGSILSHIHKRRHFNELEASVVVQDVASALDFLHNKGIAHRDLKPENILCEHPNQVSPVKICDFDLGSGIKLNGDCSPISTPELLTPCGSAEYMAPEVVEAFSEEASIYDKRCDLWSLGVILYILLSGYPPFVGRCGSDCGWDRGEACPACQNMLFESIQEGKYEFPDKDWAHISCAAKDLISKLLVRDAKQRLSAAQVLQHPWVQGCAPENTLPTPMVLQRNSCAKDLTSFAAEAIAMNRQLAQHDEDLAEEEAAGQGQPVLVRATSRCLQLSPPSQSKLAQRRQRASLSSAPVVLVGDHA

Compound	melting point	IC50 (MNK1)	IC50 (MNK2)	IC50 [1]	production / release of TNF [2]
Nc1cc(C#Cc2cnc3ccc(-c4ccc(C(=O)N5CCOCC5)c(Cl)c4)nn23)ccn1 [Example 82, (4-(3-((2-aminopyridin-4-yl)ethynyl)imidazo[1,2-b]pyridazin-6-yl)-2-chlorophenyl)(morpholino)methanone]	193.7 to 194.8 °C	–	–	–	–
Nc1cc(C#Cc2cnc3cnc(-c4ccc(C(=O)N5CCOCC5)c(Cl)c4)cn23)ccn1 [Example 93, (4-(3-((2-aminopyridin-4-yl)ethynyl)imidazo[1,2-a]pyrazin-6-yl)-2-chlorophenyl) (morpholino)methanone]	119.8 to 121.1 °C	–	–	–	–
CC(=O)Nc1cc(C#Cc2cnc3ccc(-c4ccc(C(=O)N5CCN(C)C(=O)C5)cc4)nn23)ccn1 [Example 84, N-(4-((6-(4-(4-methyl-3-oxopiperazine-1-carbonyl)phenyl)imidazo[1,2-b]pyridazin-3-yl)ethynyl)pyridin-2-yl)acetamide]	258.2 to 259.5 °C	–	–	–	–
Nc1cc(C#Cc2cnc3cnc(-c4ccc(C(=O)N5CCOCC5)cc4)cn23)ccn1 [Example 88, (4-(3-((2-aminopyridin-4-yl)ethynyl)imidazo[1,2-a]pyrazin-6-yl)phenyl)(morpholino)methanone]	143.5 to 144.2 °C	–	–	–	–
CN1CCN(C(=O)c2ccc(-c3ccc4ncc(C#Cc5ccnc(N)c5)n4n3)cc2)CC1 [Example 76, (4-(3-((2-aminopyridin-4-yl)ethynyl)imidazo[1,2-b]pyridazin-6-yl)phenyl)(4-methylpiperazin-1-yl)methanone]	120 to 122 °C	–	–	–	–
Nc1cc(C#Cc2cnc3ccc(-c4ccc(C(=O)N5CCOCC5)cc4F)nn23)ccn1 (as salt: salt) [Example 122, (4-(3-((2-aminopyridin-4-yl)ethynyl)imidazo[1,2-b]pyridazin-6-yl)-3-fluorophenyl)(morpholino)methanone formate salt]	78.2 to 79.4 °C	–	–	–	–
CN1CCN(C(=O)c2ccc(-c3ccc4ncc(C#Cc5ccnc(N)c5)n4n3)cc2)CC1=O [Example 77, 4-(4-(3-((2-aminopyridin-4-yl)ethynyl)imidazo[1,2-b]pyridazin-6-yl)benzoyl)-1-methylpiperazin-2-one]	193.6 to 194.6 °C	–	–	–	–
O=C(c1ccc(-c2ccc3ncc(C#Cc4ccnc5[nH]ccc45)n3c2)cc1)N1CCNCC1 [Example 110, (4-(3-((1H-pyrrolo[2,3-b]pyridin-4-yl)ethynyl)imidazo[1,2-a]pyridin-6-yl)phenyl)(piperazin-1-yl)methanone]	242 to 245 °C	< 0.5 µM	< 0.5 µM	< 5 µM	–
O=C(c1ccc(-c2ccn3ncc(C#Cc4ccncc4)c3n2)cc1)N1CCNCC1 [Example 115, piperazin-1-yl(4-(3-(pyridin-4-ylethynyl)pyrazolo[1,5-a]pyrimidin-5-yl)phenyl)methanone]	120 to 136 °C	< 0.5 µM	< 0.5 µM	< 5 µM	–
Cc1cnccc1C#Cc1cnc2ccc(-c3ccc(C(=O)N4CCOCC4)cc3)cn12 [Example 95, (4-(3-((3-methylpyridin-4-yl)ethynyl)imidazo[1,2-a]pyridin-6-yl)phenyl) (morpholino)methanone]	99 to 104 °C	–	–	–	–
O=C(c1ccc(-c2ccn3ncc(C#Cc4ccncc4)c3n2)cc1)N1CCOCC1 [Example 114, morpholino(4-(3-(pyridin-4-ylethynyl)pyrazolo[1,5-a]pyrimidin-5-yl)phenyl)methanone]	206 to 209 °C	< 0.5 µM	< 0.5 µM	< 5 µM	–
O=C(c1ccc(-c2ccc3ncc(C#Cc4ccncc4)n3c2)cc1)N1CCOCC1 [Example 94, morpholino(4-(3-(pyridin-4-ylethynyl)imidazo[1,2-a]pyridin-6-yl)phenyl)methanone]	165 to 166 °C	–	–	–	–
CC(=O)Nc1cc(C#Cc2cnc3ccc(-c4ccc(C(=O)N5CCN(C)CC5)cc4)nn23)ccn1 [Example 87, N-(4-((6-(4-(4-methylpiperazine-1-carbonyl)phenyl)imidazo[1,2-b]pyridazin-3-yl)ethynyl)pyridin-2-yl)acetamide]	216.8 to 217.9 °C	–	–	–	–
Nc1ncc(C#Cc2cnc3ccc(-c4ccc(C(=O)N5CCOCC5)cc4)nn23)s1 [Example 121, (4-(3-((2-aminothiazol-5-yl)ethynyl)imidazo[1,2-b]pyridazin-6-yl)phenyl) (morpholino)methanone]	245 to 254 °C	< 0.5 µM	< 0.5 µM	< 5 µM	–
O=C(c1ccc(-c2cn3c(C#Cc4ccnc5[nH]ncc45)cnc3cn2)cc1)N1CCOCC1 [Example 90, (4-(3-((1H-pyrazolo[3,4-b]pyridin-4-yl)ethynyl)imidazo[1,2-a]pyrazin-6-yl)phenyl) (morpholino)methanone]	192.8 to 193.8 °C	–	–	–	–
Nc1cc(C#Cc2cnc3ccc(-c4ccc(C(=O)N5CCOCC5)cc4)cn23)ccn1 [Example 96, (4-(3-((2-aminopyridin-4-yl)ethynyl)imidazo[1,2-a]pyridin-6-yl)phenyl)(morpholino)methanone]	133 to 138 °C	–	–	–	–
Nc1cc(C#Cc2cnc3ccc(-c4ccc(C(=O)N5CCOCC5)c(C(F)(F)F)c4)nn23)ccn1 [Example 83, (4-(3-((2-aminopyridin-4-yl)ethynyl)imidazo[1,2-b]pyridazin-6-yl)-2-(trifluoromethyl)phenyl) (morpholino)methanone]	258.5 to 258.9 °C	–	–	–	–
Nc1ncnc2n[nH]c(Nc3ccc(F)cc3)c12 [CGP57380]	–	–	–	–	inhibits
Cc1cnccc1C#Cc1cnn2ccc(-c3ccc(C(=O)N4CCOCC4)cc3)nc12 [Example 116, (4-(3-((3-methylpyridin-4-yl)ethynyl)pyrazolo[1,5-a]pyrimidin-5-yl)phenyl)(morpholino)methanone]	233 to 236 °C	< 0.5 µM	< 0.5 µM	< 5 µM	–
Nc1cc(C#Cc2cnn3ccc(-c4ccc(C(=O)N5CCOCC5)cc4F)nc23)ccn1 (as salt: salt) [Example 123, (4-(3-((2-aminopyridin-4-yl)ethynyl)pyrazolo[1,5-a]pyrimidin-5-yl)-3-fluorophenyl)(morpholino) methanone formic acid salt]	57.6 to 58.9 °C	–	–	–	–
CN1CCN(C(=O)c2ccc(-c3ccc4ncc(C#Cc5ccnc6[nH]ccc56)n4n3)cc2)CC1=O [Example 85, 4-(4-(3-((1H-pyrrolo[2,3-b]pyridin-4-yl)ethynyl)imidazo[1,2-b]pyridazin-6-yl)benzoyl)-1-methylpiperazin-2-one]	207.2 to 208.2 °C	–	–	–	–
Cc1ccncc1C#Cc1cnc2ccc(-c3ccc(C(=O)N4CCOCC4)cc3)nn12 [Example 022]	–	< 0.5 µM	< 0.5 µM	< 5 µM	–
Cc1ncccc1Nc1cc(C#Cc2cnc3ccc(-c4ccc(C(=O)N5CCOCC5)cc4)nn23)ccn1 [Example 047, (4-(3-((2-((2-methylpyridin-3-yl)amino)pyridin-4-yl)ethynyl)imidazo[1,2-b]pyridazin-6-yl)phenyl) (morpholino)methanone]	–	< 0.5 µM	< 0.5 µM	< 5 µM	–
Nc1cc(C#Cc2cnn3ccc(-c4ccc(C(=O)N5CCOCC5)cc4)nc23)ccn1 [Example 117, (4-(3-((2-aminopyridin-4-yl)ethynyl)pyrazolo[1,5-a]pyrimidin-5 yl)phenyl)(morpholino)methanone]	129.8 to 130.6 °C	–	–	–	–
O=C(c1ccc(-c2ccc3ncc(C#Cc4ccncc4)n3c2)cc1)N1CCNCC1 [Example 109, piperazin-1-yl(4-(3-(pyridin-4-ylethynyl)imidazo[1,2-a]pyridin-6-yl)phenyl)methanone]	125 to 130 °C	< 0.5 µM	< 0.5 µM	< 5 µM	–
